Measured values as given in article PMC8694318, “Discovery of pyrano[2,3-d]pyrimidine-2,4-dione derivatives as novel PARP-1 inhibitors: design, synthesis and antitumor activity” (RSC Advances, 2021).
Like-named read-outs stand apart in the source and are kept apart here.

Columns and labels:
[1] = molecular target: T1, PARP-1 (Homo sapiens, UniProt P09874); test: In vitro PARP-1 inhibitory assay (colorimetric 96-well kit, BPS Bioscience); type: biochemical
T1 construct: purchased BPS Bioscience 80580
T1 sequence (P09874 whole entry): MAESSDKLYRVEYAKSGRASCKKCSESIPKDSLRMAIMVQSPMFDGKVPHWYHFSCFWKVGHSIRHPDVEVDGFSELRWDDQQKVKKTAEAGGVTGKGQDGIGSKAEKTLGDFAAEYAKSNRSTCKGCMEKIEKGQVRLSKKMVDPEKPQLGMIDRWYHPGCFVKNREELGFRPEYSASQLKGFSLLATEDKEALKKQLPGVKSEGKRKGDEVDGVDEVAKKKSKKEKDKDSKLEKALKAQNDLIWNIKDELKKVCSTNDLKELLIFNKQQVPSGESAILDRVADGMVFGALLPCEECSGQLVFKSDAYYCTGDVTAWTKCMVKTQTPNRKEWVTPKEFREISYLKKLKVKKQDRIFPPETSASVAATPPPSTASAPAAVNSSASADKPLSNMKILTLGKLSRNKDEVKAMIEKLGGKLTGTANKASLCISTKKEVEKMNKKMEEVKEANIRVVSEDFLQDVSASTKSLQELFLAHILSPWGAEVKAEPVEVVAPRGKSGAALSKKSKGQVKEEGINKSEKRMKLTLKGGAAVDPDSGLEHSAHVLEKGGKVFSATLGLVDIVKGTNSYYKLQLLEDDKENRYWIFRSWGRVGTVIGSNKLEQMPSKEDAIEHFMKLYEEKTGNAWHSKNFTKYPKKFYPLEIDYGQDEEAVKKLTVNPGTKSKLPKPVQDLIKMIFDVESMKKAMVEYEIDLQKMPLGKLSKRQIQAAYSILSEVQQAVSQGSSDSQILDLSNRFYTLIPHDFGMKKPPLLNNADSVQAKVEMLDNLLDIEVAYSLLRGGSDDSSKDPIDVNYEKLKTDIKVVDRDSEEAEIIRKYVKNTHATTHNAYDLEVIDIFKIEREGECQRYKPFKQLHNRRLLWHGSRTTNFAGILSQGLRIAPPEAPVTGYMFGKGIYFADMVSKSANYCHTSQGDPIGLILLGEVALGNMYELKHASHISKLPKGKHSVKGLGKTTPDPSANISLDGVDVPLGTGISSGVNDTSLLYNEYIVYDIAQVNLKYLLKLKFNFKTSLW
Method: Briefly, the histone mixture was diluted 1 : 5 with 1× PBS, 50 μl of histone solution was added to each well and incubated at 4 °C overnight. The plate was washed three times using 200 μl PBST buffer (1× PBS containing 0.05% Tween-20) per well. Liquid was removed from the wells by tapping the strip wells on clean paper towels. To each well, 200 μl of blocking buffer was added, followed by 60–90 min incubation at room temperature. Then 25 μl of PARP master mixture (consisting of 2.5 μl 10× PARP buffer + 2.5 μl 10× PARP assay mixture + 5 μl activated DNA + 15 μl distilled water) was added to each well. Olaparib was used as a positive control. 5 μl of inhibitor solution of each well labeled as “test inhibitor” was added. For the “positive control” and “blank”, 5 μl of the same solution without inhibitor was added. 1× PARP buffer was prepared by adding 1 part of 10× PARP buffer to 9 parts H2O (v/v), 20 μl of 1× PARP buffer was added to the wells designated as “blank”. The amount of PARP-1 required for the assay was then calculated. The reaction was initiated by adding 20 μl of diluted PARP1 enzyme to the wells designated “positive control” and “test inhibitor control”. The strip wells were incubated at room temperature for 1 hour. The strip wells were then washed three times with 200 μl PBST buffer. Then, 50 μl of 50 times diluted Streptavidin-HRP with blocking buffer was added to each well, and the strips were further incubated at room temperature for 30 min. After washing the wells three times with 200 μl PBST buffer, HRP colorimetric substrate was added to each well and the plate was incubated at the room temperature until a blue color is developed in the positive control well. Then reaction was quenched with […] per well of 2 M sulfuric acid, and absorbance at 450 nm was determined. Carrier solvents were assayed as negative controls. All assays were performed in triplicate. To determine the IC50 value for each inhibitor, the average absorbance of each inhibitor concentration was plotted against the log of the concentration of each respective inhibitor and the IC50 value for each plot was obtained using computer-assisted non-linear regression analyses. Data presented are the results of at least two independent experiments done in triplicate. The results of these studies are presented as mean IC50 (nM).[24]

[2] = tested on: HCT116 cells; test: Cell proliferation inhibition (MTT) assay, HCT116; type: cell-based; conditions: Homo sapiens, HCT-116, 96 h incubation
Method: (§1) We used the MTT [3-(4,5-dimethylthiazol-2-yl)-2,5-diphenyltetrazoliumbromide] (Biomatik, Wilmington, DE) assay to measure cell growth inhibition, which is based on the conversion of MTT to formazan crystals by mitochondrial dehydrogenases.[25] Only in live cells, mitochondrial enzymes can transform MTT into insoluble formazan. After incubated with serially diluted inhibitors for 96 h, cell cultures were incubated with MTT solution (5 mg ml^−1) for 4 h at 37 °C. Then discard the medium and DMSO was added to solubilize the reaction product formazan by shaking for 10 min. Absorbance at 492 nm was measured with a microplate reader (Thermo, MK3). Cell viability was expressed as an IC50 value.

[3] = tested on: MCF-7 cells; test: Cell proliferation inhibition (MTT) assay, MCF-7; type: cell-based; conditions: Homo sapiens, MCF7, 96 h incubation
Method: as §1

[4] = colorimetric assay, mean of at least two independent experiments in triplicate, read-out: IC50 against PARP-1 (converted)

SMILES	IC50 [1, 4]	IC50 [2]	IC50 [3]	IC50 [1]	IC50 ([1]; read-out: IC50 against PARP-1 (converted))
CONC1=C(C#N)Oc2[nH]c(=O)[nH]c(=O)c2C1c1cccs1 (centres unmarked) [Compound S6, 6-(methoxyamino)-2,4-dioxo-5-(thiophen-2-yl)-2,3,4,5-tetrahydro-1H-pyrano[2,3-d]pyrimidine-7-carbonitrile]	0.115 ± 0.00722 µM	2.85 ± 0.03 µM	3.12 ± 0.11 µM	–	–
Nc1nc(S)nc2c1Oc1[nH]c(=O)[nH]c(=O)c1C2c1cccs1 (centres unmarked) [Compound S2, 4-amino-2-mercapto-10-(thiophen-2-yl)-6,10-dihydro-7H-pyrano[2,3-d:5,6-d']dipyrimidine-7,9(8H)-dione]	0.00406 ± 0.00018 µM	9.31 ± 0.34 µM	2.65 ± 0.05 µM	–	–
O=c1[nH]c2c(c(=O)[nH]1)C(c1cccs1)c1[nH]c(=S)n(-c3ccccc3)c(=O)c1O2 (centres unmarked) [Compound S7, 3-phenyl-10-(thiophen-2-yl)-2-thioxo-2,3,6,10-tetrahydro-1H-pyrano[2,3-d:5,6-d']dipyrimidine-4,7,9(8H)-trione]	0.00361 ± 0.00015 µM	46.9 ± 1.82 µM	1.28 ± 1.12 µM	–	–
CCO/C=N/C1=C(C#N)C(c2cccs2)c2c([nH]c(=O)[nH]c2=O)O1 (centres unmarked) [Compound S9, (E)-ethyl N-(6-cyano-2,4-dioxo-5-(thiophen-2-yl)-2,3,4,5-tetrahydro-1H-pyrano[2,3-d]pyrimidin-7-yl)formimidate]	0.0485 ± 0.00325 µM	2.9 ± 0.04 µM	8.77 ± 0.15 µM	–	–
N#CC1=C(N)Oc2[nH]c(=O)[nH]c(=O)c2C1c1cccs1 (centres unmarked) [Compound S1, 7-amino-2,4-dioxo-5-(thiophen-2-yl)-2,3,4,5-tetrahydro-1H-pyrano[2,3-d]pyrimidine-6-carbonitrile]	0.0491 ± 0.00232 µM	24.1 ± 1.14 µM	12.68 ± 0.12 µM	–	–
NC1=CC(c2ccc([N+](=O)[O-])cc2)=NC2Oc3[nH]c(=O)[nH]c(=O)c3C(c3cccs3)C12 (centres unmarked) [Compound S8, 6-amino-8-(4-nitrophenyl)-5-(thiophen-2-yl)-1,5,5a,9a-tetrahydro-2H-pyrido[3′,2':5,6]pyrano[2,3-d]pyrimidine-2,4(3H)-dione]	0.0158 ± 0.00086 µM	2.76 ± 0.06 µM	0.66 ± 0.05 µM	–	–
Cc1nc(O)c2c(n1)Oc1[nH]c(=O)[nH]c(=O)c1C2c1cccs1 (centres unmarked) [Compound S10, 6-hydroxy-8-methyl-5-(thiophen-2-yl)-1,5-dihydro-2H-pyrano[2,3-d:6,5-d']dipyrimidine-2,4(3H)-dione]	0.0162 ± 0.00088 µM	12.1 ± 0.64 µM	4.48 ± 0.43 µM	–	–
Nc1nn(-c2cc([N+](=O)[O-])ccc2[N+](=O)[O-])c2c1Oc1[nH]c(=O)[nH]c(=O)c1C2c1cccs1 (centres unmarked) [Compound S3, 3-amino-1-(2,5-dinitrophenyl)-9-(thiophen-2-yl)-5,9-dihydropyrazolo[3′,4':5,6]pyrano[2,3-d]pyrimidine-6,8(1H,7H)-dione]	–	2.8 ± 0.07 µM	3.17 ± 1.04 µM	0.0714 ± 0.00412 µM	–
CN[C@@H]1C[C@H]2O[C@@](C)([C@@H]1OC)n1c3ccccc3c3c4c(c5c6ccccc6n2c5c31)C(=O)NC4 [Staurosporine, reference compound]	–	6.94 ± 0.21 µM	–	–	–
O=c1[nH]c2c(c(=O)[nH]1)C(c1cccs1)c1[nH]c(=S)[nH]c(=S)c1O2 (centres unmarked) [Compound S5, 10-(thiophen-2-yl)-2,4-dithioxo-1,2,3,4,6,10-hexahydro-7H-pyrano[2,3-d:5,6-d']dipyrimidine-7,9(8H)-dione]	0.0111 ± 0.00076 µM	7.41 ± 0.18 µM	4.95 ± 0.07 µM	–	–
Nc1ncnc2c1Oc1[nH]c(=O)[nH]c(=O)c1C2c1cccs1 (centres unmarked) [Compound S4, 4-amino-10-(thiophen-2-yl)-6,10-dihydro-7H-pyrano[2,3-d:5,6-d']dipyrimidine-7,9(8H)-dione]	0.0149 ± 0.00103 µM	6.38 ± 0.11 µM	0.87 ± 0.07 µM	–	0.0151 µM
